{"source": "PubChem BioAssay AID504935", "about": "(The Scripps Research Institute Molecular Screening Center, 2011)", "key": {"U87 cell line": {"tested_on": "U87 cell line", "assay": "U87 glioblastoma viability loss – cell-based, luminescence, U87 vII, cytotoxicity control for Wee1 degradation inhibitor project, dose response (AID 504935)", "conditions": "U87 cells cytotoxicity"}, "U87 vII cell line": {"tested_on": "U87 vII cell line", "assay": "U87 glioblastoma viability loss – cell-based, luminescence, U87 vII, cytotoxicity control for Wee1 degradation inhibitor project, dose response (AID 504935)", "conditions": "U87 cells cytotoxicity"}}, "note": "pIC50: −log10 of the molar value."}
{"smiles": "O=[N+]([O-])c1cccc2[nH]c(CNc3nc(N4CCOCC4)nc4c3ncn4-c3ccsc3)nc12", "values": [{"measurement": "pIC50", "setting": "U87 cell line", "result": 7.02}, {"measurement": "pIC50", "setting": "U87 vII cell line", "result": 7.63}]}
